{"source": "patent US20250296937A1", "about": "“CYCLIC BISBENZYL TETRAHYDROISOQUINOLINE COMPOUND, AND PREPARATION METHOD THEREFOR AND USE THEREOF” (Shanghai Institute of Materia Medica, Chinesse Academy of …, priority 2021, published 2025)", "key": {"[1]": {"tested_on": "Vero E6 cells", "experiment": "Cytotoxicity test on Vero E6 cells (CCK8)", "type": "cell-based", "details": "inventors' screening of natural products", "experimental": "In this embodiment, the half toxicity concentration of each embodiment on Vero E6 cells was determined by CCK8 kit analysis (CC50)."}, "[2]": {"details": "cited from earlier work"}, "[3]": {"tested_on": "2019 novel coronavirus (SARS-CoV-2) original strain", "experiment": "Replication inhibitory activity against SARS-CoV-2 original strain in Vero E6 cells (qRT-PCR)", "type": "cell-based"}}}
{"smiles": "COc1cc2c3cc1Oc1c(OC)c(OC)cc4c1[C@H](Cc1ccc(cc1)Oc1cc(ccc1O)C[C@H]3N(C)CC2)N(C)CC4", "note": "[Oxyacanthine, oxyacanthine, reference compound]", "values": [{"measurement": "cytotoxicity (background statement)", "setting": "[1]", "value": "high cytotoxicity"}, {"measurement": "solubility in ethanol, chloroform, ether, dilute acid", "setting": "[2]; ethanol, chloroform, ether, dilute acid", "value": "soluble"}, {"measurement": "solubility in water", "setting": "[2]; water", "value": "almost insoluble"}, {"measurement": "antiviral activity against novel coronaviruses (background statement)", "setting": "[3]", "value": "weak antiviral activity"}]}
